Reference: BindingDB's records for doi:10.1021/jm00072a017 (Farmitalia Carlo Erba, 1993)

biological target: T1, Thromboxane-A synthase (Rattus norvegicus, UniProt P49430); test: ChEBML_213089
T1 sequence (P49430 whole entry): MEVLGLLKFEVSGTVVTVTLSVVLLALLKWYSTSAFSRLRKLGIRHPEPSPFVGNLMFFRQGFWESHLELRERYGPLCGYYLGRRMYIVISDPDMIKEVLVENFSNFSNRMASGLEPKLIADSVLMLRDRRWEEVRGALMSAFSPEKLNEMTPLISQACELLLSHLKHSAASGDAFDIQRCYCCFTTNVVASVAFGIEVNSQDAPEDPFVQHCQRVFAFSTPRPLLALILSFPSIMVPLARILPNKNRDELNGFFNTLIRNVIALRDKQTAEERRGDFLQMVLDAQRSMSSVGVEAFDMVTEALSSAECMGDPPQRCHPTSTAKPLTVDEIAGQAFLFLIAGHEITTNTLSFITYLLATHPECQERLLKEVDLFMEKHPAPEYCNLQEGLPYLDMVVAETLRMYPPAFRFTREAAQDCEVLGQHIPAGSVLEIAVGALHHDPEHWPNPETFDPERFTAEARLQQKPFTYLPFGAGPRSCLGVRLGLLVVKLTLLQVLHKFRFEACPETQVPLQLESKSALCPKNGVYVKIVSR
Source text: In vitro inhibition of thromboxane B2 production in rat whole blood.

IC50, > 1 µM:
CCOC(=O)C1=C(CC)N=C(CC)C(C(=O)OCC)C1c1cccc(-n2ccnc2)c1 (stereo unspecified) [2,6-Diethyl-4-(3-imidazol-1-yl-phenyl)-1,4-dihydro-pyridine-3,5-dicarboxylic acid diethyl ester]
CCOC(=O)C1C(C)=NC(C)=C(C(=O)OCCN(C)Cc2ccccc2)C1c1cccc(-c2cccnc2)c1 (stereo unspecified) [2,6-Dimethyl-4-(3-pyridin-3-yl-phenyl)-1,4-dihydro-pyridine-3,5-dicarboxylic acid 3-[2-(benzyl-methyl-amino)-ethyl] ester 5-ethyl ester]
CC1=NC(C)=C(C(=O)OCC(C)C)C(c2cccc(-c3cccnc3)c2)C1C(=O)OCC(C)C (stereo unspecified) [2,6-Dimethyl-4-(3-pyridin-3-yl-phenyl)-1,4-dihydro-pyridine-3,5-dicarboxylic acid diisobutyl ester]
CCOC(=O)C1=C(C)N=C(C)C(C(=O)OCC)C1c1ccccc1-n1ccnc1 (stereo unspecified) [4-(2-Imidazol-1-yl-phenyl)-2,6-dimethyl-1,4-dihydro-pyridine-3,5-dicarboxylic acid diethyl ester]
CCOC(=O)C1=C(C)N=C(C)C(C(=O)O)C1c1cccc(-n2ccnc2)c1 (stereo unspecified) [4-(3-Imidazol-1-yl-phenyl)-2,6-dimethyl-1,4-dihydro-pyridine-3,5-dicarboxylic acid monoethyl ester]
CCOC(=O)C1=C(C)N=C(C)C(C(=O)OCC)C1c1ccc(-n2ccnc2)cc1 (stereo unspecified) [4-(4-Imidazol-1-yl-phenyl)-2,6-dimethyl-1,4-dihydro-pyridine-3,5-dicarboxylic acid diethyl ester]
